Experimental data reported in PubChem BioAssay AID1963871 (Molecular Pharmacology Branch, DTP, NCI, 2024).

Test system: KRAS-mutant PDC multicell tumor spheroid viability
Test: Anticancer human tumor 521955-158-R2-J5-PDC patient-derived pancreatic carcinoma cell line growth inhibition [KRAS2]
Conditions: for viability, T/C: stronger effect = lower value
Procedure, shortened: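 Combination screen of spheroid viability in tumor-cell co-cultures with endothelial (HUVEC) and mesenchymal stem cell stroma. Each agent was tested in half-log dilutions, topping at clinical Cmax or at 10 microM without a known Cmax.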

[1] = curve of first compound, second compound 0.1 µM
[2] = curve of first compound, second compound 0.316 µM
[3] = curve of first compound, second compound 1 µM
[4] = curve of first compound, second compound 3.16 µM
[5] = curve of first compound, second compound 10 µM
[6] = second compound 0.1 µM, first compound 0.0316 µM
[7] = second compound 0.1 µM, first compound 0.1 µM
[8] = second compound 0.1 µM, first compound 0.316 µM
[9] = second compound 0.1 µM, first compound 1 µM
[10] = second compound 0.1 µM, first compound 3.16 µM
[11] = second compound 0.1 µM, first compound 10 µM
[12] = second compound 0.316 µM, first compound 0.0316 µM
[13] = second compound 0.316 µM, first compound 0.1 µM
[14] = second compound 0.316 µM, first compound 0.316 µM
[15] = second compound 0.316 µM, first compound 1 µM
[16] = second compound 0.316 µM, first compound 3.16 µM
[17] = second compound 0.316 µM, first compound 10 µM
[18] = second compound 1 µM, first compound 0.0316 µM
[19] = second compound 1 µM, first compound 0.1 µM
[20] = second compound 1 µM, first compound 0.316 µM
[21] = second compound 1 µM, first compound 1 µM
[22] = second compound 1 µM, first compound 3.16 µM
[23] = second compound 1 µM, first compound 10 µM
[24] = second compound 3.16 µM, first compound 0.0316 µM
[25] = second compound 3.16 µM, first compound 0.1 µM
[26] = second compound 3.16 µM, first compound 0.316 µM
[27] = second compound 3.16 µM, first compound 1 µM
[28] = second compound 3.16 µM, first compound 3.16 µM
[29] = second compound 3.16 µM, first compound 10 µM
[30] = second compound 10 µM, first compound 0.0316 µM
[31] = second compound 10 µM, first compound 0.1 µM
[32] = second compound 10 µM, first compound 0.316 µM
[33] = second compound 10 µM, first compound 1 µM
[34] = second compound 10 µM, first compound 3.16 µM
[35] = second compound 10 µM, first compound 10 µM
[36] = second compound 0.1 µM, first compound 0.000316 µM
[37] = second compound 0.1 µM, first compound 0.001 µM
[38] = second compound 0.1 µM, first compound 0.00316 µM
[39] = second compound 0.1 µM, first compound 0.01 µM
[40] = second compound 0.316 µM, first compound 0.000316 µM
[41] = second compound 0.316 µM, first compound 0.001 µM
[42] = second compound 0.316 µM, first compound 0.00316 µM
[43] = second compound 0.316 µM, first compound 0.01 µM
[44] = second compound 1 µM, first compound 0.000316 µM
[45] = second compound 1 µM, first compound 0.001 µM
[46] = second compound 1 µM, first compound 0.00316 µM
[47] = second compound 1 µM, first compound 0.01 µM
[48] = second compound 3.16 µM, first compound 0.000316 µM
[49] = second compound 3.16 µM, first compound 0.001 µM
[50] = second compound 3.16 µM, first compound 0.00316 µM
[51] = second compound 3.16 µM, first compound 0.01 µM
[52] = second compound 10 µM, first compound 0.000316 µM
[53] = second compound 10 µM, first compound 0.001 µM
[54] = second compound 10 µM, first compound 0.00316 µM
[55] = second compound 10 µM, first compound 0.01 µM
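Also: viability read after seven days of drug exposure.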

| Compound | IC50 [1] [nM] | IC50 [2] [nM] | IC50 [3] [nM] | IC50 [4] [nM] | IC50 [5] [nM] | viability, T/C [6] [%] | viability, T/C [7] [%] | viability, T/C [8] [%] | viability, T/C [9] [%] | viability, T/C [10] [%] | viability, T/C [11] [%] | viability, T/C [12] [%] | viability, T/C [13] [%] | viability, T/C [14] [%] | viability, T/C [18] [%] | viability, T/C [19] [%] | viability, T/C [24] [%] | viability, T/C [25] [%] | viability, T/C [30] [%] | viability, T/C [31] [%] | other results |
| --- | --- | --- | --- | --- | --- | --- | --- | --- | --- | --- | --- | --- | --- | --- | --- | --- | --- | --- | --- | --- | --- |
| COC(=O)c1ccc2c(C(=Nc3ccc(N(C)C(=O)CN4CCN(C)CC4)cc3)c3ccccc3)c(O)[nH]c2c1 + CNCc1ccccc1-c1csc(C(C)Nc2nc(C)nc3cc(OC)c(OC)cc23)c1 | 2260 | 1800 | 1960 | < 31.6 | < 31.6 | 87.3 | 111 | 103 | 123 | 26.9 | 1.42 | 90 | 101 | 100 | 97.1 | 103 | 0.52 | 0.17 | 0.14 | 0.13 | viability, T/C [15]: 107%; viability, T/C [16]: 2.22%; viability, T/C [17]: 0.15%; viability, T/C [20]: 115%; viability, T/C [21]: 95.3%; viability, T/C [22]: 17.5%; viability, T/C [23]: 0.14%; viability, T/C [26]: 0.16%; viability, T/C [27]: 0.15%; viability, T/C [28]: 0.07%; viability, T/C [29]: 0.59%; viability, T/C [32]: 0.13%; viability, T/C [33]: 0.13%; viability, T/C [34]: 0.12%; viability, T/C [35]: 0.19% |
| CN(C)C/C=C/C(=O)Nc1cc2c(Nc3ccc(F)c(Cl)c3)ncnc2cc1O[C@H]1CCOC1 + CNCc1ccccc1-c1csc(C(C)Nc2nc(C)nc3cc(OC)c(OC)cc23)c1 | > 100 | > 100 | > 100 | 2.23 | < 0.316 | 88.9 | 77.3 | – | – | – | – | 98.5 | 64.4 | – | 97 | 97.7 | 85.9 | 1 | 0.23 | 0.24 | viability, T/C [36]: 107%; viability, T/C [37]: 104%; viability, T/C [38]: 93.3%; viability, T/C [39]: 91%; viability, T/C [40]: 110%; viability, T/C [41]: 93.5%; viability, T/C [42]: 81.1%; viability, T/C [43]: 92.6%; viability, T/C [44]: 113%; viability, T/C [45]: 120%; viability, T/C [46]: 100%; viability, T/C [47]: 100%; viability, T/C [48]: 114%; viability, T/C [49]: 116%; viability, T/C [50]: 0.23%; viability, T/C [51]: 0.26%; viability, T/C [52]: 0.27%; viability, T/C [53]: 0.27%; viability, T/C [54]: 0.18%; viability, T/C [55]: 0.16% |
| COC(=O)c1ccc2c(C(=Nc3ccc(N(C)C(=O)CN4CCN(C)CC4)cc3)c3ccccc3)c(O)[nH]c2c1 + C=CC(=O)N1CCN(c2nc(=O)n(-c3c(C)ccnc3C(C)C)c3nc(-c4c(O)cccc4F)c(F)cc23)C(C)C1 | 1720 | 1540 | 727 | 1010 | 1260 | 89.6 | 88.4 | 87 | 75.9 | 21 | 0.16 | 102 | 88.1 | 89.9 | 113 | 96.4 | 86 | 82.1 | 66.5 | 71.5 | viability, T/C [15]: 74.2%; viability, T/C [16]: 10.3%; viability, T/C [17]: 0.14%; viability, T/C [20]: 77%; viability, T/C [21]: 43.5%; viability, T/C [22]: 4.15%; viability, T/C [23]: 0.16%; viability, T/C [26]: 67.9%; viability, T/C [27]: 53.4%; viability, T/C [28]: 2.33%; viability, T/C [29]: 0.14%; viability, T/C [32]: 56.6%; viability, T/C [33]: 61.2%; viability, T/C [34]: 4.87%; viability, T/C [35]: 0.22% |
| COc1cc2nccc(Oc3ccc(NC(=O)C4(C(=O)Nc5ccc(F)cc5)CC4)cc3)c2cc1OC + CC1OCC2(CCN(c3cnc(Sc4ccnc(N)c4Cl)c(N)n3)CC2)C1N | 8050 | 5530 | 4800 | < 31.6 | 1090 | 75.7 | 90.5 | 74.8 | 77.8 | 64.1 | 46.7 | 64.3 | 74.3 | 63.5 | 66.8 | 64.5 | 42.4 | 46.4 | 44.9 | 48.7 | viability, T/C [15]: 71%; viability, T/C [16]: 60.3%; viability, T/C [17]: 37.8%; viability, T/C [20]: 65.6%; viability, T/C [21]: 60.6%; viability, T/C [22]: 61%; viability, T/C [23]: 32%; viability, T/C [26]: 51.4%; viability, T/C [27]: 52.5%; viability, T/C [28]: 46.8%; viability, T/C [29]: 46.2%; viability, T/C [32]: 53.2%; viability, T/C [33]: 56.5%; viability, T/C [34]: 40.1%; viability, T/C [35]: 27.7% |
| CN(C)C/C=C/C(=O)Nc1cc2c(Nc3ccc(F)c(Cl)c3)ncnc2cc1O[C@H]1CCOC1 + COc1cc2nc(C)nc(NC(C)c3cc(N)cc(C(F)(F)F)c3)c2cc1OC1CCOC1 | > 100 | > 100 | > 100 | > 100 | > 100 | 86.8 | 85 | – | – | – | – | 80.4 | 61.1 | – | 84.3 | 77.2 | 77.8 | 71.8 | 91.8 | 72.7 | viability, T/C [36]: 91.4%; viability, T/C [37]: 93.2%; viability, T/C [38]: 74.3%; viability, T/C [39]: 79.6%; viability, T/C [40]: 78.4%; viability, T/C [41]: 84.8%; viability, T/C [42]: 63.5%; viability, T/C [43]: 74.5%; viability, T/C [44]: 79.8%; viability, T/C [45]: 99.6%; viability, T/C [46]: 82.6%; viability, T/C [47]: 69.8%; viability, T/C [48]: 91.5%; viability, T/C [49]: 93.9%; viability, T/C [50]: 88.5%; viability, T/C [51]: 71.2%; viability, T/C [52]: 90.2%; viability, T/C [53]: 82.8%; viability, T/C [54]: 86%; viability, T/C [55]: 85.4% |
| COC(=O)c1ccc2c(C(=Nc3ccc(N(C)C(=O)CN4CCN(C)CC4)cc3)c3ccccc3)c(O)[nH]c2c1 | – | – | – | – | – | – | – | – | – | – | – | – | – | – | – | – | – | – | – | – | viability, T/C (compound 0.0316 µM): 102% [middle of 5 runs]; viability, T/C (compound 0.1 µM): 105% [middle of 5 runs]; viability, T/C (compound 10 µM): 0.29% [middle of 5 runs]; IC50 (curve of compound): 2.06 µM [middle of 5 runs] |
| Cn1nccc1Nc1nccc(-c2cc3c(s2)C(C)(C)N(CCN2CCOCC2)C3=O)n1 + COc1cc2nc(C)nc(NC(C)c3cc(N)cc(C(F)(F)F)c3)c2cc1OC1CCOC1 | 355 | 522 | 574 | 510 | 104 | 92.5 | 77.9 | 47.1 | 36.8 | 24.6 | 17.6 | 104 | 83.7 | 57.2 | 83.2 | 87.6 | 86 | 75.3 | 76.8 | 51 | viability, T/C [15]: 40%; viability, T/C [16]: 23.8%; viability, T/C [17]: 16.6%; viability, T/C [20]: 62%; viability, T/C [21]: 37%; viability, T/C [22]: 21.2%; viability, T/C [23]: 13.9%; viability, T/C [26]: 60.8%; viability, T/C [27]: 36.1%; viability, T/C [28]: 17.4%; viability, T/C [29]: 8.1%; viability, T/C [32]: 16.8%; viability, T/C [33]: 4.05%; viability, T/C [34]: 1.96%; viability, T/C [35]: 0.81% |
